Measured values as given in patent US9993494B2, “Compositions and methods for treating fibrotic disease” (eFFECTOR Therapeutics, Inc., priority 2014, dated 2018).

Test system: normal human lung fibroblasts
Test: Ribosomal profiling: translational efficiency in TGFβ-treated fibroblasts
Type: cell-based
Details: TGFβ-treated fibroblasts
Experimental: Ribosomal profiling allows for measurement of changes in transcription and translation on a genome-wide basis accompanying TGFβ-dependent transformation of fibroblasts to myofibroblasts. Ribosomal profiles of the TGFβ-treated fibroblasts from Example 1 (about 6×10^6 cells/10 cm plate) were prepared and analyzed for changes in translational efficiencies with respect to potential disease-associated cellular changes accompanying this TGFβ-induced transformation.
Briefly, cells were washed with cold PBS supplemented with cycloheximide and lysed with 1× mammalian cell lysis buffer for 10 minutes on ice. Lysates were clarified by centrifugation for 10 minutes at 14,000 rpm and supernatants were collected. Cell lysates were processed to generate ribosomal protected fragments and total mRNA according to the instructions included with the ARTseq Ribosome Profiling Kit (Illumina, San Diego, Calif.). Sequencing of total RNA (RNA) and of ribosome-protected fragments of RNA (RPF) was carried out using RNA-Seq methodology according to the manufacturer's instructions (Illumina). To analyze the ribosomal profiles, RNA-Seq reads were processed with tools from the FASTX-Toolkit (fastq_quality_trimmer, fastx_clipper and fastx_trimmer). Unprocessed and processed reads were evaluated for a variety of quality measures using FastQC, and processed reads were mapped to the human genome using TopHat (see, e.g., Trapnell et al., Bioinformatics 25:1105, 2009). Gene-by-gene assessment of the number of fragments strictly and uniquely mapping to the coding region of each gene was conducted using HTSeq-count, a component of the HTSeq package. […] Genes with low counts in either RPF or RNA were excluded from differential analyses. Pathway and network analyses of differential data were conducted using Ingenuity Pathway Analysis (IPA).

## COC(=O)[C@H]1[C@@H](O)[C@@]2(O)c3c(OC)cc(O[C@@H]4O[C@@H]([C@H](O)CO)CO[C@H]4OC)cc3O[C@@]2(c2ccc(OC)cc2)[C@@H]1c1ccccc1 [Silvestrol]
ENSG00000013563
  renormalizing the translational profile of DNASE1L1: + (+ = 0.9 to 1.5)
ENSG00000049130
  renormalizing the translational profile of KITLG: − (− = <0.9)
ENSG00000049192
  renormalizing the translational profile of ADAMTS6: − (− = <0.9)
ENSG00000050426
  renormalizing the translational profile of LETMD1: − (− = <0.9)
ENSG00000052126
  renormalizing the translational profile of PLEKHA5: ++ (++ = 1.5 to 2.0)
ENSG00000063046
  renormalizing the translational profile of EIF4B: − (− = <0.9)
ENSG00000063177
  renormalizing the translational profile of RPL18: − (− = <0.9)
ENSG00000064393
  renormalizing the translational profile of HIPK2: − (− = <0.9)
ENSG00000066279
  renormalizing the translational profile of ASPM: + (+ = 0.9 to 1.5)
ENSG00000068028
  renormalizing the translational profile of RASSF1: − (− = <0.9)
ENSG00000070756
  renormalizing the translational profile of PABPC1: − (− = <0.9)
ENSG00000071082
  renormalizing the translational profile of RPL31: − (− = <0.9)
ENSG00000075651
  renormalizing the translational profile of PLD1: ++ (++ = 1.5 to 2.0)
ENSG00000078401
  renormalizing the translational profile of EDN1: ++ (++ = 1.5 to 2.0)
ENSG00000087586
  renormalizing the translational profile of AURKA: − (− = <0.9)
ENSG00000088367
  renormalizing the translational profile of EPB41L1: + (+ = 0.9 to 1.5)
ENSG00000089009
  renormalizing the translational profile of RPL6: − (− = <0.9)
ENSG00000089041
  renormalizing the translational profile of P2RX7: − (− = <0.9)
ENSG00000089094
  renormalizing the translational profile of KDM2B: − (− = <0.9)
ENSG00000089157
  renormalizing the translational profile of RPLP0: − (− = <0.9)
ENSG00000089289
  renormalizing the translational profile of IGBP1: − (− = <0.9)
ENSG00000090376
  renormalizing the translational profile of IRAK3: + (+ = 0.9 to 1.5)
ENSG00000090621
  renormalizing the translational profile of PABPC4: + (+ = 0.9 to 1.5)
ENSG00000094963
  renormalizing the translational profile of FMO2: − (− = <0.9)
ENSG00000097021
  renormalizing the translational profile of ACOT7: − (− = <0.9)
ENSG00000099624
  renormalizing the translational profile of ATP5D: − (− = <0.9)
ENSG00000100097
  renormalizing the translational profile of LGALS1: − (− = <0.9)
ENSG00000100129
  renormalizing the translational profile of EIF3L: − (− = <0.9)
ENSG00000100316
  renormalizing the translational profile of RPL3: − (− = <0.9)
ENSG00000101639
  renormalizing the translational profile of CEP192: + (+ = 0.9 to 1.5)
ENSG00000101935
  renormalizing the translational profile of AMMECR1: − (− = <0.9)
ENSG00000102007
  renormalizing the translational profile of PLP2: − (− = <0.9)
ENSG00000104408
  renormalizing the translational profile of EIF3E: − (− = <0.9)
ENSG00000104529
  renormalizing the translational profile of EEF1D: − (− = <0.9)
ENSG00000104979
  renormalizing the translational profile of C19orf53: − (− = <0.9)
ENSG00000105373
  renormalizing the translational profile of GLTSCR2: − (− = <0.9)
ENSG00000105514
  renormalizing the translational profile of RAB3D: − (− = <0.9)
ENSG00000105640
  renormalizing the translational profile of RPL18A: − (− = <0.9)
ENSG00000105664
  renormalizing the translational profile of COMP: − (− = <0.9)
ENSG00000106415
  renormalizing the translational profile of GLCCI1: + (+ = 0.9 to 1.5)
ENSG00000107623
  renormalizing the translational profile of GDF10: − (− = <0.9)
ENSG00000108107
  renormalizing the translational profile of RPL28: − (− = <0.9)
ENSG00000108298
  renormalizing the translational profile of RPL19: − (− = <0.9)
ENSG00000108551
  renormalizing the translational profile of RASD1: +++ (+++ = >2.0)
ENSG00000109065
  renormalizing the translational profile of NAT9: − (− = <0.9)
ENSG00000109475
  renormalizing the translational profile of RPL34: − (− = <0.9)
ENSG00000109846
  renormalizing the translational profile of CRYAB: − (− = <0.9)
ENSG00000111640
  renormalizing the translational profile of GAPDH: − (− = <0.9)
ENSG00000111678
  renormalizing the translational profile of C12orf57: − (− = <0.9)
ENSG00000112559
  renormalizing the translational profile of MDFI: − (− = <0.9)
ENSG00000113070
  renormalizing the translational profile of HBEGF: + (+ = 0.9 to 1.5)
ENSG00000114391
  renormalizing the translational profile of RPL24: − (− = <0.9)
ENSG00000114942
  renormalizing the translational profile of EEF1B2: − (− = <0.9)
ENSG00000115267
  renormalizing the translational profile of IFIH1: − (− = <0.9)
ENSG00000117543
  renormalizing the translational profile of DPH5: − (− = <0.9)
ENSG00000118898
  renormalizing the translational profile of PPL: − (− = <0.9)
ENSG00000120278
  renormalizing the translational profile of PLEKHG1: − (− = <0.9)
ENSG00000121897
  renormalizing the translational profile of LIAS: − (− = <0.9)
ENSG00000121957
  renormalizing the translational profile of GPSM2: − (− = <0.9)
ENSG00000122026
  renormalizing the translational profile of RPL21: − (− = <0.9)
ENSG00000122406
  renormalizing the translational profile of RPL5: − (− = <0.9)
ENSG00000122641
  renormalizing the translational profile of INHBA: + (+ = 0.9 to 1.5)
ENSG00000122966
  renormalizing the translational profile of CIT: +++ (+++ = >2.0)
ENSG00000125691
  renormalizing the translational profile of RPL23: − (− = <0.9)
